The results in this text go back to paper PMC12851022, “Targeting the Spliceosomal Protein USP39 Through Allosteric Ligands and PROTAC‐Induced Degradation” (Angewandte Chemie (International Ed. in English), 2025).

For assay [1], the system named is HeLa-WT proteome. The assay can be described thus: Proteome-wide LC-MS/MS and western blot selectivity analysis in HeLa-WT cells. The assay is classed as cell-based, human. On the procedure: Figure 4 Effective and selective degradation of USP39 in cells by USP39‐PROTACs. a) Optimization of cellular degradation assay in HeLa cells transiently overexpressing USP39‑OFP (HeLa‐USP39‐OFP). […] GAPDH was used as a loading control. g) Proteasome dependence of USP39 degradation. HeLa‐WT cells were co‐treated with MG132 (0.25 µM) or DMSO control and USP39_PROTAC_V1 for 24 h ST. h) Representative immunofluorescence images of HeLa‐USP39_OFP cells treated with DMSO (NT), USP39_PROTAC_V1 (10 nM, 24 h), or USP39_PROTAC_V1 + MLN4924 (1 µM), stained for USP39 (red) and nuclei (blue). i) Quantification of USP39 degradation by fluorescence microscopy, showing DC50 values of 13 nM without MLN4924 (orange) and 204 nM with MLN4924 (blue) (MLN4924 = 5 uM). j) VHL‐dependence of PROTAC‐induced degradation. Schematic of PROTAC recruitment to VHL via hydroxyl‐proline interactions (His115, Ser111). Western blot comparing USP39 levels in VHL WT and VHL KO HeLa cells treated with USP39_PROTAC_V1. k) Fluorescence assay in HEK293T cells co‐expressing USP39‑OFP and either VHL_WT‑EGFP or VHL_m (Δ91–121). […] Comparison of untreated (NT) and USP39_PROTAC_V1–treated (10 nM, 24 h) samples. Percent spliced/unspliced (S/U) ratios are shown, reflecting USP39‐deficiency–associated splicing defects. Data represent at least four independent biological replicates.
To assess the selectivity of USP39 degradation, a proteome‐wide analysis was conducted using LC‐MS/MS based proteomics. […] These finding were further validated by western blot (WB) analysis, which confirmed consistent downregulation of USP39, ISG15, and NDRG1.
A general note: A western blot detects proteins with antibodies after separation by electrophoresis.

Assay [2] deals with T1, USP39-OFP (Homo sapiens, UniProt Q53GS9).
T1 construct: expressed in transfected cells; host or cells: HeLa
T1 sequence (Q53GS9 whole entry): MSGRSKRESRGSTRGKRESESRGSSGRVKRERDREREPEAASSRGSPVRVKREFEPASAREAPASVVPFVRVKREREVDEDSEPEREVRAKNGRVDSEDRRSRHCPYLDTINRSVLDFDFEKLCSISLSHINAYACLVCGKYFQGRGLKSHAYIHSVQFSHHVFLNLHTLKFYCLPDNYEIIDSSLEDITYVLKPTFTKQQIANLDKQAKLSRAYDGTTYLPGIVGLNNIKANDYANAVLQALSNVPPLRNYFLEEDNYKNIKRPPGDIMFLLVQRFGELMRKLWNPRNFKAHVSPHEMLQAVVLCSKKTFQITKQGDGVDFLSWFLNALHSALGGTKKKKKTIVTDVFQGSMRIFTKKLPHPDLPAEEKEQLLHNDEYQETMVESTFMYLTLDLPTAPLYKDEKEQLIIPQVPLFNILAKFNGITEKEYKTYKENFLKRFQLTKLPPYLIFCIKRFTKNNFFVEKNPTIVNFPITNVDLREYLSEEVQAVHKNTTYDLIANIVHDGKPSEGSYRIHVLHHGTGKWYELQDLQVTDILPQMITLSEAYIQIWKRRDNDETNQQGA
T1 sequence (P40337 whole entry, further chain): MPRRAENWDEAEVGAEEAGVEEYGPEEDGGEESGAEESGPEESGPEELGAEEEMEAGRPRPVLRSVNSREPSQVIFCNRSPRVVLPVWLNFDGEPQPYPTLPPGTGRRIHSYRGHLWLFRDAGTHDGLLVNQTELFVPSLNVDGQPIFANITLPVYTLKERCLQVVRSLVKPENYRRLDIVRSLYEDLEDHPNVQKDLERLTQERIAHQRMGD
T1 sequence (Q15370 whole entry partner): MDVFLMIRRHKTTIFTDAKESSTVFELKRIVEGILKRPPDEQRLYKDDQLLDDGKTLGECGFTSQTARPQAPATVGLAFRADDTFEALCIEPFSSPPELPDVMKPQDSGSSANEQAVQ
T1 sequence (Q15369 whole entry partner): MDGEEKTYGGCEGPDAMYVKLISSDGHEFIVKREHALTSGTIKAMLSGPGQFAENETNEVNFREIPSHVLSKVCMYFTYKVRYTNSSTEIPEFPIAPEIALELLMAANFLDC
The assay can be described thus: In-cell fluorescence degradation assay in HeLa-USP39-OFP cells. The class given is cell-based. The conditions noted are these: 50 nM, 16-h serum starvation, 24-h treatment. On the procedure: To evaluate the degradation efficacy of USP39_PROTACs, we adapted our recently developed cellular fluorescence assay in HeLa cells transiently overexpressing USP39‐OFP (HeLa‐USP39‐OFP).^[ [32] ^] Various experimental conditions were tested, including different initial seeding densities, the presence or absence of serum starvation, varying treatment durations, and compound concentration gradients (Figure 4a). Among these, a 16‐h serum starvation followed by a 24‐h treatment provided the most consistent and reproducible degradation of USP39 and was used for further experiments. Under these experimental conditions, a series of CRBN‐ and VHL‐based PROTACs were evaluated in an in‐cell fluorescence assay at a concentration of 50 nM to assess their ability to induce target protein degradation (Figure 4b, Table SI4). […]
Figure 4 Effective and selective degradation of USP39 in cells by USP39‐PROTACs. a) Optimization of cellular degradation assay in HeLa cells transiently overexpressing USP39‑OFP (HeLa‐USP39‐OFP). […] Western blot comparing USP39 levels in VHL WT and VHL KO HeLa cells treated with USP39_PROTAC_V1. k) Fluorescence assay in HEK293T cells co‐expressing USP39‑OFP and either VHL_WT‑EGFP or VHL_m (Δ91–121). […]

Take `Cc1ncsc1-c1ccc(CNC(=O)C2CC(O)CN2C(=O)C(NC(=O)CCOCCOCCOCCNC(=O)c2csc(Nc3ccc(Cl)cc3)n2)C(C)(C)C)cc1` (stereo not shown) [USP39_PROTAC_V1]: the “USP39 level in proteome-wide analysis” value in assay [1] (5 nM and 50 nM, 24 h, over 6000 detectable proteins, p < 0.0001, log2FC < -4) is “most significantly downregulated protein”. The “NDRG1 and ISG15 levels (off-target)” value in assay [1] (5 nM and 50 nM, 24 h, proteomics, validated by WB) is on record as “significant downregulation”. The “USP5 and USP10 levels (homologues)” value in assay [1] (proteomic and immunoblot analyses) was “remained unaffected”. The “USP39 degradation in in-cell fluorescence assay” value in assay [2] was “robust degradation activity”.
